Laboratory results as given in PubChem BioAssay (NCI).
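Where inhibition never reached the appropriate level, the endpoint shown equals the highest concentration tested. Otherwise, values were interpolated linearly from a five-concentration, 48-hour dose response in 96-well plates. Abbreviation: GI50, concentration required for 50% inhibition of growth. TGI: total growth inhibition.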

Tests used:
Assay in all cases: growth of human tumour cells (NCI), 48 h
[1] = system: MDA-MB-231 breast
[2] = system: SN12C renal
[3] = system: A549 NSCLC
[4] = system: NCI-H23 lung
[5] = system: COLO 205 colon
[6] = system: UO-31 renal
[7] = system: HL-60(TB) leukemia
[8] = system: HT29 colon
[9] = system: NCI-H522 lung
[10] = system: RPMI-8226 leukemia
[11] = system: HCT-116 colon
[12] = system: CCRF-CEM leukemia
[13] = system: CAKI-1 renal
[14] = system: SK-MEL-5 melanoma
[15] = system: NCI-H460 lung
[16] = system: EKVX NSCLC
[17] = system: TK-10 renal
[18] = system: OVCAR-4 ovarian
[19] = system: U251 CNS
[20] = system: SNB-75 CNS
[21] = system: OVCAR-5 ovarian
[22] = system: SW-620 colon
[23] = system: A498 renal
[24] = system: BT-549 breast
[25] = system: KM12 colon
[26] = system: OVCAR-3 ovarian
[27] = system: NCI-H226 lung
[28] = system: HS 578T breast
[29] = system: M14 melanoma
[30] = system: MOLT-4 leukemia
[31] = system: PC-3 prostate
[32] = system: IGROV1 ovarian
[33] = system: LOX IMVI melanoma
[34] = system: UACC-62 melanoma
[35] = system: SK-MEL-28 melanoma
[36] = system: SF-295 CNS
[37] = system: HOP-62 NSCLC
[38] = system: HCT-15 colon
[39] = system: DU-145 prostate
[40] = system: T-47D breast
[41] = system: 786-0 renal
[42] = system: OVCAR-8 ovarian
[43] = system: SK-MEL-2 melanoma
[44] = system: SNB-19 CNS
[45] = system: HCC-2998 colon
[46] = system: SF-268 CNS
[47] = system: ACHN renal
[48] = system: SF-539 CNS
[49] = system: K-562 leukemia
[50] = system: RXF 393 renal
[51] = system: MALME-3M melanoma
[52] = system: NCI/ADR-RES ovarian
[53] = system: HOP-92 NSCLC
[54] = system: MDA-MB-435
[55] = system: SK-OV-3 ovarian
[56] = system: SR leukemia
[57] = system: MCF7 breast
[58] = system: UACC-257 melanoma

CC(=O)OC1C(C)OC(Oc2c(-c3ccc(O)cc3)oc3cc(O)cc(O)c3c2=O)C(O)C1OC(C)=O (configuration not stated)
GI50 [1]: 21.1 µM
TGI [1]: 63.7 µM
GI50 [2]: 27.3 µM
TGI [2]: 97.5 µM
GI50 [3]: 49.8 µM
TGI [3]: > 100 µM
GI50 [4]: 26.4 µM
TGI [4]: > 80.7 µM
GI50 [5]: > 67.3 µM
TGI [5]: > 100 µM
GI50 [6]: 39.3 µM
TGI [6]: > 100 µM
GI50 [7]: 23.9 µM
TGI [7]: 61.3 µM
GI50 [8]: 31.4 µM
TGI [8]: > 91.3 µM
GI50 [9]: 18.5 µM
TGI [9]: 47.4 µM
GI50 [10]: 23.4 µM
TGI [10]: 70.4 µM
GI50 [11]: 35.1 µM
TGI [11]: > 100 µM
GI50 [12]: 30.2 µM
TGI [12]: > 100 µM
GI50 [13]: 41.4 µM
TGI [13]: > 100 µM
GI50 [14]: 17.4 µM
TGI [14]: 39.9 µM
GI50 [15]: 32.5 µM
TGI [15]: > 100 µM
GI50 [16]: 54.2 µM
TGI [16]: > 100 µM
GI50 [17]: 31.9 µM
TGI [17]: > 90.8 µM
GI50 [18]: 35.9 µM
TGI [18]: > 100 µM
GI50 [19]: 32.1 µM
TGI [19]: > 100 µM
GI50 [20]: 27.5 µM
TGI [20]: > 93.9 µM
GI50 [21]: > 100 µM
TGI [21]: > 100 µM
GI50 [22]: 35.8 µM
TGI [22]: > 100 µM
GI50 [23]: > 52.4 µM
TGI [23]: > 100 µM
GI50 [24]: 19.9 µM
TGI [24]: 54.8 µM
GI50 [25]: 29.4 µM
TGI [25]: > 83.8 µM
GI50 [26]: 20.6 µM
TGI [26]: 45.3 µM
GI50 [27]: 36.9 µM
TGI [27]: > 100 µM
GI50 [28]: 24.9 µM
TGI [28]: 82.4 µM
GI50 [29]: 33.5 µM
TGI [29]: > 100 µM
GI50 [30]: 26.7 µM
TGI [30]: > 75 µM
GI50 [31]: 30.5 µM
TGI [31]: > 100 µM
GI50 [32]: 31.7 µM
TGI [32]: > 79.8 µM
GI50 [33]: 21 µM
TGI [33]: 50.2 µM
GI50 [34]: 21.4 µM
TGI [34]: > 60.5 µM
GI50 [35]: 29 µM
TGI [35]: > 100 µM
GI50 [36]: 29.9 µM
TGI [36]: > 100 µM
GI50 [37]: 35.9 µM
TGI [37]: > 100 µM
GI50 [38]: 52.3 µM
TGI [38]: > 100 µM
GI50 [39]: 31.7 µM
TGI [39]: > 94.1 µM
GI50 [40]: 23.4 µM
TGI [40]: 68.6 µM
GI50 [41]: 48.2 µM
TGI [41]: > 100 µM
GI50 [42]: 29 µM
TGI [42]: > 84.9 µM
GI50 [43]: 21.1 µM
TGI [43]: 49.3 µM
GI50 [44]: 36.2 µM
TGI [44]: > 100 µM
GI50 [45]: 21.9 µM
TGI [45]: 55.2 µM
GI50 [46]: 27 µM
TGI [46]: > 89.5 µM
GI50 [47]: 52.3 µM
TGI [47]: > 100 µM
GI50 [48]: 29.1 µM
TGI [48]: > 100 µM
GI50 [49]: 30.8 µM
TGI [49]: > 100 µM
GI50 [50]: 24.2 µM
TGI [50]: 71.8 µM
GI50 [51]: 21.3 µM
TGI [51]: > 75.2 µM
GI50 [52]: > 100 µM
TGI [52]: > 100 µM
GI50 [53]: 13.2 µM
TGI [53]: 54.3 µM
GI50 [54]: 27.2 µM
TGI [54]: > 75.4 µM
GI50 [55]: 56.4 µM
TGI [55]: > 100 µM
GI50 [56]: 25 µM
TGI [56]: 65 µM
GI50 [57]: 28.3 µM
TGI [57]: > 100 µM
GI50 [58]: 27.6 µM
TGI [58]: > 79.9 µM

Nc1ncnc2occ(-c3ccc(NC(=O)Nc4cccc(C(F)(F)F)c4)cc3)c12
GI50 [1]: 5.8 µM
TGI [1]: 16.4 µM
GI50 [2]: 2.01 µM
TGI [2]: 18 µM
GI50 [3]: 4.73 µM
TGI [3]: 14.9 µM
GI50 [4]: 4.1 µM
TGI [4]: 13.3 µM
GI50 [5]: 4.53 µM
TGI [5]: 9.16 µM
GI50 [6]: 2.88 µM
TGI [6]: 11 µM
GI50 [7]: 5.1 µM
TGI [7]: 14.2 µM
GI50 [8]: 3.12 µM
TGI [8]: 10.6 µM
GI50 [9]: 4.18 µM
TGI [9]: 8.92 µM
GI50 [10]: 4.86 µM
TGI [10]: 15.3 µM
GI50 [11]: 2.98 µM
TGI [11]: 16 µM
GI50 [12]: 3.51 µM
TGI [12]: 20.1 µM
GI50 [13]: 2.29 µM
TGI [13]: 13 µM
GI50 [14]: 3.06 µM
TGI [14]: 6.21 µM
GI50 [15]: 3.46 µM
TGI [15]: 9.3 µM
GI50 [16]: 4.46 µM
TGI [16]: 14.5 µM
GI50 [17]: 2.9 µM
TGI [17]: 11.8 µM
GI50 [18]: 3.19 µM
TGI [18]: 17.7 µM
GI50 [19]: 5.27 µM
TGI [19]: 16.5 µM
GI50 [20]: 3.77 µM
TGI [20]: 9.69 µM
GI50 [21]: 5.5 µM
TGI [21]: 13.3 µM
GI50 [22]: 6.77 µM
TGI [22]: 20.2 µM
GI50 [23]: 0.422 µM
TGI [23]: 3.22 µM
GI50 [24]: 4.32 µM
TGI [24]: 10.5 µM
GI50 [25]: 0.123 µM
TGI [25]: 4.51 µM
GI50 [26]: 4.79 µM
TGI [26]: 9.72 µM
GI50 [27]: 0.367 µM
TGI [27]: 6.1 µM
GI50 [28]: 0.973 µM
TGI [28]: 6.74 µM
GI50 [29]: 3.2 µM
TGI [29]: 9.19 µM
GI50 [30]: 3.54 µM
TGI [30]: 15.5 µM
GI50 [31]: 4.94 µM
TGI [31]: 13.3 µM
GI50 [32]: 2.02 µM
TGI [32]: 10.2 µM
GI50 [33]: 2.57 µM
TGI [33]: 12.1 µM
GI50 [34]: 3.02 µM
TGI [34]: 6.54 µM
GI50 [35]: 4.89 µM
TGI [35]: 12.7 µM
GI50 [36]: 3.76 µM
TGI [36]: 15.7 µM
GI50 [37]: 5.09 µM
TGI [37]: 10 µM
GI50 [38]: 4.24 µM
TGI [38]: 18.2 µM
GI50 [39]: 4.82 µM
TGI [39]: 16.1 µM
GI50 [40]: 5.22 µM
TGI [40]: 15 µM
GI50 [41]: 4.46 µM
TGI [41]: 10 µM
GI50 [42]: 2.85 µM
TGI [42]: 8.26 µM
GI50 [43]: 5.39 µM
TGI [43]: 11.6 µM
GI50 [44]: 7.69 µM
TGI [44]: 21.3 µM
GI50 [45]: 6.11 µM
TGI [45]: 14.3 µM
GI50 [46]: 3.54 µM
TGI [46]: 9.83 µM
GI50 [47]: 1.4 µM
TGI [47]: 12.1 µM
GI50 [48]: 0.702 µM
TGI [48]: 7.1 µM
GI50 [49]: 1.3 µM
TGI [49]: 25 µM
GI50 [50]: 1.71 µM
TGI [50]: 5.39 µM
GI50 [51]: 5.74 µM
TGI [51]: 13.3 µM
GI50 [52]: 4.51 µM
TGI [52]: 16.2 µM
GI50 [53]: 3.43 µM
TGI [53]: 10.1 µM
GI50 [54]: 2.22 µM
TGI [54]: 6.48 µM
GI50 [55]: 4.91 µM
TGI [55]: 17.9 µM
GI50 [56]: 0.957 µM
TGI [56]: 8.59 µM
GI50 [57]: 2.34 µM
TGI [57]: 19.3 µM
GI50 [58]: 4.24 µM
TGI [58]: 8.86 µM
